Read-outs that look alike come from different tables or passages of the source.
What was measured:
HCoV 229E = HCoV 229E cytopathic effect (CPE) assay; assay type: cell-based; conditions: Table 4; CellTiter Glo; read-out: 229E CPE EC50
Description: (§1) Compounds were assayed using standard methods against multiple coronaviral strains, including HCoV 229E and OC43 strains. The antiviral activity of compounds was calculated based on the protection of the virus-induced CPE at each concentration normalized by the virus control.
(§2) Reagents and instruments used in this assay include luminescent cell viability assay kit CellTiter Glo (Promega) and Microplate Reader Synergy2 (BioTek).
Cytopathic effect (CPE) was measured by CellTiter Glo following the manufacturer's manual. The antiviral activity of compounds was calculated based on the protection of the virus-induced CPE at each concentration normalized by the virus control.
(§3) The cytotoxicity of compounds was assessed under the same conditions, but without virus infection, in parallel. Cell viability was measured with CellTiter Glo. The antiviral activity and cytotoxicity of compounds were expressed as % Inhibition and % Viability, respectively, and calculated with formulas.

SARS-COV2 Mpro = SARS-COV2 Mpro (Severe acute respiratory syndrome coronavirus 2, UniProt P0DTD1); experiment: COVID-19 (nCoV-2019, SARS-CoV2) Mpro enzymatic assay; assay type: biochemical
229E Mpro = 229E Mpro (Human coronavirus 229E, UniProt P0C6X1); experiment: 229E Mpro enzymatic assay; assay type: biochemical, HCoV 229E; conditions: Table 3
OC43 Mpro = OC43 Mpro (Human coronavirus OC43, UniProt P0C6X6); experiment: OC43 Mpro enzymatic assay; assay type: biochemical, HCoV OC43; conditions: Table 3
HCov OC43 = experiment: HCoV OC43 cytopathic effect (CPE) assay; assay type: cell-based; conditions: Table 4, CellTiter Glo
Description: as §1, §2
Reference compound used was remdesivir; detection reagent: CellTiter Glo.) The CPE were measured by CellTiter Glo following the manufacturer's manual. The antiviral activity of compounds was calculated based on the protection of the virus-induced CPE at each concentration normalized by the virus control.
as §3

[1] = system: SARS-CoV-2 WT replicon in Huh7 cells; experiment: microbe, parasite or virus in culture; assay type: cell-based; conditions: Severe acute respiratory syndrome coronavirus 2, Huh-7, 24 h

Chain of 229E Mpro (P0C6X1 2966-3267): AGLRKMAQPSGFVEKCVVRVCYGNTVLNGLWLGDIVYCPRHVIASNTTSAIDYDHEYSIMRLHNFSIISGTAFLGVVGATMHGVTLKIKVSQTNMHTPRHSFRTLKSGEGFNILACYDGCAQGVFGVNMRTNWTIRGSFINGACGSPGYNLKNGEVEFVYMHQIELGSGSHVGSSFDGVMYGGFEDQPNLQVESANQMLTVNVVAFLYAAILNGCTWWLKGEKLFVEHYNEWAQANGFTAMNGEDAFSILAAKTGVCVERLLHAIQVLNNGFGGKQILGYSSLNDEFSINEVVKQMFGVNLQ
Chain of OC43 Mpro (P0C6X6 3247-3549): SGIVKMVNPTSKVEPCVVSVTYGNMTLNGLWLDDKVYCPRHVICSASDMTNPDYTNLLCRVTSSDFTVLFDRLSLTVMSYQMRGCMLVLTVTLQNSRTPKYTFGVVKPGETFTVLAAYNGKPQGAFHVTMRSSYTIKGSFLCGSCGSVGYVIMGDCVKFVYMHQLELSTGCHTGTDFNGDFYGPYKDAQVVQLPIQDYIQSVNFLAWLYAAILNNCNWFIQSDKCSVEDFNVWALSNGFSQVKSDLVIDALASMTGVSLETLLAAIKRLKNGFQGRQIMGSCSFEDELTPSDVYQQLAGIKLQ

| Compound | EC50 (HCoV 229E) [µM] | IC50 (SARS-COV2 Mpro; read-out: COVID-19 Mpro IC50, Table 3) [µM] | IC50 (229E Mpro) [µM] | IC50 (OC43 Mpro) [µM] | EC50 (HCov OC43) [µM] | IC50 (SARS-COV2 Mpro) [µM] | EC50 (HCov OC43; Betacoronavirus 1, OC43) [µM] | EC50 [1] [µM] |
| --- | --- | --- | --- | --- | --- | --- | --- | --- |
| CC(C)(C)[C@H](NC(=O)c1cnccn1)C(=O)N1C[C@H]2[C@@H]([C@H]1C(=O)N[C@H](C#N)C[C@@H]1CCNC1=O)C2(C)C (single isomer, unassigned) [101 Isomer 2] | 2 to 10 | < 2 | < 2 | < 2 | < 2 |  |  |  |
| Cc1cc(C(=O)N[C@@H](Cc2cccc3ccccc23)C(=O)N[C@@H](CC2CC2)C(=O)N[C@H](C#N)C[C@@H]2CCCNC2=O)no1 [Compound 111, N—((S)-1-(((S)-1-(((S)-1-cyano-2-((S)-2-oxopiperidin-3-yl)ethyl)amino)-3-cyclopropyl-1-oxopropan-2-yl)amino)-3-(naphthalen-1-yl)-1-oxopropan-2-yl)-5-methylisoxazole-3-carboxamide] | 10 to 30 |  | < 2 | < 2 |  | 2 to 10 | 2 to 10 |  |
| Cc1cc(C(=O)N[C@@H](Cc2ccc(F)cc2)C(=O)N[C@@H](CC(C)C)C(=O)N[C@H](C#N)C[C@@H]2CCCNC2=O)no1 [Compound 113, N—((S)-1-(((S)-1-(((S)-1-cyano-2-((S)-2-oxopiperidin-3-yl)ethyl)amino)-4-methyl-1-oxopentan-2-yl)amino)-3-(4-tluorophenyl)-1-oxopropan-2-yl)-5-methylisoxazole-3-carboxamide] | 2 to 10 |  | < 2 | < 2 |  | < 2 | 2 to 10 |  |
| N#C[C@H](C[C@@H]1CCCNC1=O)NC(=O)[C@H](CC1CC1)NC(=O)[C@H](Cc1cccc2ccccc12)NC(=O)c1cnccn1 [Compound 115, N—((S)-1-(((S)-1-(((S)-1-cyano-2-((S)-2-oxopiperidin-3-yl)ethyl)amino)-3-cyclopropyl-1-oxopropan-2-yl)amino)-3-(naphthalen-1-yl)-1-oxopropan-2-yl)pyrazine-2-carboxamide] | 2 to 10 |  | < 2 | < 2 |  | 2 to 10 | 2 to 10 |  |
| N#C[C@H](C[C@@H]1CCCNC1=O)NC(=O)[C@H](CC1CC1)NC(=O)[C@H](Cc1cccc2ccccc12)NC(=O)OCc1ccccc1 [Compound 116, Benzyl((S)-1-(((S)-1-(((S)-1-cyano-2-((S)-2-oxopiperidin-3-yl)ethyl)amino)-3-cyclopropyl-1-oxopropan-2-yl)amino)-3-(naphthalen-1-yl)-1-oxopropan-2-yl)carbamate] | 2 to 10 |  | < 2 | < 2 |  | < 2 | < 2 |  |
| CC1(C)C[C@@H](C[C@@H](C#N)NC(=O)[C@H](CC2CC2)NC(=O)[C@H](Cc2cccc3ccccc23)NC(=O)c2cnccn2)C(=O)N1 [Compound 118, N—((S)-1-(((S)-1-(((S)-1-cyano-2-((R)-5,5-dimethyl-2-oxopyrrolidin-3-yl)ethyl)amino)-3-cyclopropyl-1-oxopropan-2-yl)amino)-3-(naphthalen-1-yl)-1-oxopropan-2-yl)pyrazine-2-carboxamide] | 2 to 10 |  | < 2 | < 2 |  | 2 to 10 | 2 to 10 |  |
| N#C[C@H](C[C@@H]1CCNC1=O)NC(=O)[C@H](CC1CC1)NC(=O)[C@H](Cc1cccc2ccccc12)NC(=O)c1cnccn1 [Compound 119, N—((S)-1-(((S)-1-(((S)-1-cyano-2-((S)-2-oxopyrrolidin-3-yl)ethyl)amino)-3-cyclopropyl-1-oxopropan-2-yl)amino)-3-(naphthalen-1-yl)-1-oxopropan-2-yl)pyrazine-2-carboxamide] | 10 to 30 |  | < 2 | < 2 |  | 2 to 10 | 2 to 10 |  |
| Cc1cc(C(=O)N[C@@H](Cc2cccc3ccccc23)C(=O)N[C@@H](CC2CC2)C(=O)N[C@H](C#N)C[C@@H]2CC(C)(C)NC2=O)no1 [Compound 120, N—((S)-1-(((S)-1-(((S)-1-cyano-2-((R)-5,5-dimethyl-2-oxopyrrolidin-3-yl)ethyl)amino)-3-cyclopropyl-1-oxopropan-2-yl)amino)-3-(naphthalen-1-yl)-1-oxopropan-2-yl)-5-methylisoxazole-3-carboxamide] | 2 to 10 |  | < 2 | < 2 |  | 2 to 10 | < 2 |  |
| Cc1cc(C(=O)N[C@@H](Cc2cccc3ccccc23)C(=O)N[C@@H](CC2CC2)C(=O)N[C@H](C#N)C[C@@H]2CCNC2=O)no1 [Compound 121, N—((S)-1-(((S)-1-(((S)-1-cyano-2-((S)-2-oxopyrrolidin-3-yl)ethyl)amino)-3-cyclopropyl-1-oxopropan-2-yl)amino)-3-(naphthalen-1-yl)-1-oxopropan-2-yl)-5-methylisoxazole-3-carboxamide] | 2 to 10 |  | < 2 | < 2 |  | 2 to 10 | 2 to 10 |  |
| N#C[C@H](C[C@@H]1CCCNC1=O)NC(=O)[C@H](CC1CC1)NC(=O)[C@H](Cc1ccc(F)cc1)NC(=O)OCc1ccccc1 [Compound 123] | 10 to 30 |  | < 2 | 2 to 10 |  | 10 to 30 | 10 to 30 |  |
| N#C[C@H](C[C@@H]1CCNC1=O)NC(=O)C(CC1CCC(F)(F)CC1)NC(=O)[C@H](Cc1cccc2ccccc12)NC(=O)OCc1ccccc1 (stereo partly drawn) [Compound 128, benzylN-[(1S)-2-[[2-[[(1S)-1-cyano-2-[(3S)-2-oxopyrrolidin-3-yl]ethyl]amino]-1-[(4,4-difluorocyclohexyl)methyl]-2-oxo-ethyl]amino]-1-(1-naphthylmethyl)-2-oxo-ethyl]carbamate] | < 2 |  | < 2 | < 2 |  | < 2 | < 2 |  |
| C[C@@H](OC1(C)CCC1)[C@H](NC(=O)C(F)(F)F)C(=O)N1C[C@H]2[C@@H]([C@H]1C(=O)N[C@H](C#N)C[C@@H]1CCCNC1=O)C2(C)C [Compound 376] |  |  |  |  |  |  |  | < 2 |
| CC1(C)[C@@H]2[C@@H](C(=O)N[C@H](C#N)C[C@@H]3CCCNC3=O)N(C(=O)[C@@H](NC(=O)C(F)(F)F)C3CC3)C[C@@H]21 [Compound 377] |  |  |  |  |  |  |  | < 2 |
| C[C@@H](OC1CC1)[C@H](NC(=O)C(F)(F)F)C(=O)N1C[C@H]2[C@@H]([C@H]1C(=O)N[C@H](C#N)C[C@@H]1CCCNC1=O)C2(C)C [Compound 378] |  |  |  |  |  |  |  | < 2 |

— US20240277795A1, “INHIBITORS OF CYSTEINE PROTEASES AND METHODS OF USE THEREOF” (Pardes Biosciences, Inc., priority 2021, published 2024)
